PubChem BioAssay AID330 (DTP/NCI, 2004)
Values joined by “and” are separate entries in the source; they are usually repeats but may differ in a detail not shown here. Identical values can stand only once. Inconclusive results and toxic doses are left out.

Tested on: P388 leukemia ip, CD2F1 mice, survival T/C
Assay: NCI In Vivo Anticancer Drug Screen. Data for tumor model P388 Leukemia (intraperitoneal) in CD2F1 (CDF1) mice
Conditions: endpoint: median survival time, higher = longer survival
Summary of the method: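 Mice carrying the transplanted tumor received test compound or vehicle. Survival was recorded in each group, and the value is the treated-group measurement divided by that of the vehicle-treated control group.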

`N[C@@H](Cc1ccc(N(CCCl)CCCl)cc1)C(=O)O` was tested, and the T/C (dose: 0.25 mg/kg/injection, schedule: Q01DX009 (ip), vehicle: saline) was 152 % of control, the T/C (dose: 0.25 mg/kg/injection, schedule: Q01DX009 (ip), vehicle: suspension in saline) was 117 % of control and the T/C (dose: 0.25 mg/kg/injection, schedule: Q03HX008 (ip), vehicle: saline) was 165 % of control. The T/C (dose: 0.38 mg/kg/injection, schedule: Q01DX005 (ip), vehicle: saline) was 154 % of control, the T/C (dose: 0.5 mg/kg/injection, schedule: Q01DX005 (ip), vehicle: saline) was 153 % of control and 189 % of control and the T/C (dose: 0.5 mg/kg/injection, schedule: Q01DX009 (ip), vehicle: saline) was 163 % of control and 170 % of control. For the same molecule, the T/C (dose: 0.5 mg/kg/injection, schedule: Q01DX009 (ip), vehicle: suspension in saline) was 123 % of control, the T/C (dose: 0.5 mg/kg/injection, schedule: Q03HX008 (ip), vehicle: saline) was 190 % of control and the T/C (dose: 0.5 mg/kg/injection, schedule: Q04DX003 (ip), vehicle: water) was 150 % of control. For the same molecule, the T/C (dose: 0.54 mg/kg/injection, schedule: Q01DX009 (ip), vehicle: saline) was 175 % of control, the T/C (dose: 0.75 mg/kg/injection, schedule: Q01DX005 (ip), vehicle: saline) was 172 % of control and the T/C (dose: 0.75 mg/kg/injection, schedule: Q04DX003 (ip), vehicle: saline) was 150 % of control. The T/C (dose: 0.9 mg/kg/injection, schedule: Q01DX009 (ip), vehicle: saline) was 193 % of control, the T/C (dose: 1.0 mg/kg/injection, schedule: Q01DX005 (ip), vehicle: water) was 167 % of control and the T/C (dose: 1.0 mg/kg/injection, schedule: Q01DX009 (ip), vehicle: Klucel (hydroxypropylcellulose) (HPC)) was 222 % of control. The T/C (dose: 1.0 mg/kg/injection, schedule: Q01DX009 (ip), vehicle: saline) was 193 % of control and 209 % of control and 227 % of control, the T/C (dose: 1.0 mg/kg/injection, schedule: Q01DX009 (ip), vehicle: suspension in saline) was 163 % of control and the T/C (dose: 1.0 mg/kg/injection, schedule: Q04DX003 (ip), vehicle: saline) was 176 % of control. For the same molecule, the T/C (dose: 1.0 mg/kg/injection, schedule: Q04DX003 (ip), vehicle: water) was 162 % of control, the T/C (dose: 1.25 mg/kg/injection, schedule: Q04DX003 (ip), vehicle: saline) was 176 % of control and the T/C (dose: 1.25 mg/kg/injection, schedule: Q04DX003 (ip), vehicle: water) was 158 % of control and 200 % of control. The T/C (dose: 1.25 mg/kg/injection, schedule: Q04DX003 (iv), vehicle: saline) was 124 % of control, the T/C (dose: 1.5 mg/kg/injection, schedule: Q01DX005 (ip), vehicle: saline) was 203 % of control and the T/C (dose: 1.5 mg/kg/injection, schedule: Q01DX009 (ip), vehicle: Klucel (hydroxypropylcellulose) (HPC)) was 101 % of control. The T/C (dose: 1.5 mg/kg/injection, schedule: Q01DX009 (ip), vehicle: saline) was 227 % of control, the T/C (dose: 1.5 mg/kg/injection, schedule: Q04DX003 (ip), vehicle: Klucel (hydroxypropylcellulose) (HPC)) was 225 % of control and the T/C (dose: 1.5 mg/kg/injection, schedule: Q04DX003 (ip), vehicle: saline) was 174 % of control. The T/C (dose: 1.62 mg/kg/injection, schedule: Q04DX003 (ip), vehicle: saline) was 180 % of control, the T/C (dose: 1.62 mg/kg/injection, schedule: Q04DX003 (ip), vehicle: water) was 191 % of control and the T/C (dose: 1.7 mg/kg/injection, schedule: Q04DX003 (ip), vehicle: saline) was 174 % of control. For the same molecule, the T/C (dose: 1.94 mg/kg/injection, schedule: Q04DX002 (ip), vehicle: saline) was 190 % of control and 192 % of control and 206 % of control, the T/C (dose: 1.94 mg/kg/injection, schedule: Q04DX003 (ip), vehicle: saline) was 186 % of control and the T/C (dose: 2.0 mg/kg/injection, schedule: Q01DX009 (ip), vehicle: saline) was 236 % of control and 254 % of control. For the same molecule, the T/C (dose: 2.0 mg/kg/injection, schedule: Q01DX009 (ip), vehicle: suspension in saline) was 174 % of control and 221 % of control, the T/C (dose: 2.0 mg/kg/injection, schedule: Q04DX003 (ip), vehicle: saline) was 196 % of control and 199 % of control and 200 % of control and the T/C (dose: 2.0 mg/kg/injection, schedule: Q04DX003 (ip), vehicle: water) was 189 % of control. For the same molecule, the T/C (dose: 2.2 mg/kg/injection, schedule: Q01DX005 (ip), vehicle: saline) was 165 % of control and 203 % of control, the T/C (dose: 2.5 mg/kg/injection, schedule: Q01DX001 (ip), vehicle: Klucel (hydroxypropylcellulose) (HPC)) was 207 % of control and the T/C (dose: 2.7 mg/kg/injection, schedule: Q04DX003 (ip), vehicle: saline) was 194 % of control and 250 % of control. For the same molecule, the T/C (dose: 2.7 mg/kg/injection, schedule: Q04DX003 (ip), vehicle: water) was 233 % of control, the T/C (dose: 3.0 mg/kg/injection, schedule: Q04DX003 (ip), vehicle: Klucel (hydroxypropylcellulose) (HPC)) was 119 % of control and the T/C (dose: 3.0 mg/kg/injection, schedule: Q04DX003 (ip), vehicle: saline) was 196 % of control. For the same molecule, the T/C (dose: 3.24 mg/kg/injection, schedule: Q04DX002 (ip), vehicle: saline) was 202 % of control and 213 % of control and 243 % of control, the T/C (dose: 3.24 mg/kg/injection, schedule: Q04DX003 (ip), vehicle: saline) was 220 % of control and 227 % of control and the T/C (dose: 3.6 mg/kg/injection, schedule: Q01DX005 (ip), vehicle: saline) was 165 % of control and 233 % of control. For the same molecule, the T/C (dose: 3.7 mg/kg/injection, schedule: Q04DX003 (ip), vehicle: saline) was 220 % of control, the T/C (dose: 3.75 mg/kg/injection, schedule: Q04DX003 (ip), vehicle: distilled water + Tween-80) was 215 % of control and the T/C (dose: 4.0 mg/kg/injection, schedule: Q01DX001 (ip), vehicle: suspension in saline) was 183 % of control. For the same molecule, the T/C (dose: 4.0 mg/kg/injection, schedule: Q01DX009 (ip), vehicle: Klucel (hydroxypropylcellulose) (HPC)) was 161 % of control, the T/C (dose: 4.0 mg/kg/injection, schedule: Q01DX009 (ip), vehicle: saline) was 166 % of control and the T/C (dose: 4.0 mg/kg/injection, schedule: Q01DX009 (ip), vehicle: suspension in saline) was 169 % of control and 238 % of control. For the same molecule, the T/C (dose: 4.0 mg/kg/injection, schedule: Q04DX003 (ip), vehicle: saline) was 199 % of control and 211 % of control and 240 % of control, the T/C (dose: 4.0 mg/kg/injection, schedule: Q04DX003 (ip), vehicle: water) was 225 % of control and the T/C (dose: 4.5 mg/kg/injection, schedule: Q04DX003 (ip), vehicle: saline) was 240 % of control. The T/C (dose: 5.0 mg/kg/injection, schedule: Q01DX001 (ip), vehicle: saline) was 208 % of control, the T/C (dose: 5.0 mg/kg/injection, schedule: Q04DX003 (iv), vehicle: saline) was 194 % of control and the T/C (dose: 5.4 mg/kg/injection, schedule: Q04DX002 (ip), vehicle: saline) was 254 % of control. For the same molecule, the T/C (dose: 6.0 mg/kg/injection, schedule: Q01DX005 (ip), vehicle: saline) was 226 % of control, the T/C (dose: 6.0 mg/kg/injection, schedule: Q04DX003 (ip), vehicle: Klucel (hydroxypropylcellulose) (HPC)) was 117 % of control and the T/C (dose: 6.0 mg/kg/injection, schedule: Q04DX003 (ip), vehicle: saline) was 218 % of control. The T/C (dose: 6.7 mg/kg/injection, schedule: Q01DX001 (ip), vehicle: saline) was 185 % of control, the T/C (dose: 7.3 mg/kg/injection, schedule: Q04DX003 (ip), vehicle: saline) was 239 % of control and the T/C (dose: 8.0 mg/kg/injection, schedule: Q01DX009 (ip), vehicle: Klucel (hydroxypropylcellulose) (HPC)) was 109 % of control. The T/C (dose: 8.0 mg/kg/injection, schedule: Q01DX009 (ip), vehicle: saline) was 99 % of control and 100 % of control, the T/C (dose: 8.0 mg/kg/injection, schedule: Q01DX009 (ip), vehicle: suspension in saline) was 104 % of control and 108 % of control and the T/C (dose: 10.0 mg/kg/injection, schedule: Q01DX001 (iv), vehicle: saline) was 185 % of control. The T/C (dose: 10.0 mg/kg/injection, schedule: Q04DX003 (iv), vehicle: saline) was 100 % of control, the T/C (dose: 12.5 mg/kg/injection, schedule: Q04DX003 (ip), vehicle: saline) was 152 % of control and the T/C (dose: 12.6 mg/kg/injection, schedule: Q04DX003 (ip), vehicle: saline) was 239 % of control. The T/C (dose: 15.0 mg/kg/injection, schedule: Q04DX002 (ip), vehicle: saline) was 101 % of control and 109 % of control, the T/C (dose: 15.0 mg/kg/injection, schedule: Q04DX003 (ip), vehicle: saline) was 108 % of control and the T/C (dose: 16.0 mg/kg/injection, schedule: Q04DX003 (ip), vehicle: water) was 115 % of control. The T/C (dose: 17.5 mg/kg/injection, schedule: Q01DX001 (ip), vehicle: saline) was 243 % of control, the T/C (dose: 18.9 mg/kg/injection, schedule: Q04DX003 (ip), vehicle: saline) was 107 % of control and the T/C (dose: 24.0 mg/kg/injection, schedule: Q04DX003 (ip), vehicle: saline) was 107 % of control.
